Experimental data: US10054581B1, “Inhibitors of notch signaling pathway and use thereof in treatment of cancers” (Ecole Polytechnique Federale de Lausanne (EPFL), priority 2011, dated 2018)
Entries after “also recorded” stand apart in the source; their conditions may differ.

Assays:
[1] = tested on: Notch signalling via DL4:N2 ligand-receptor pair (Notch2); test: DL4:N2 coculture assay, Notch driven luciferase reporter; assay type: cell-based; settings: 10 μM, 24 hours
Text: Next Applicants investigated whether I3 could block pathway activation via other Notch receptors or is it specific to Notch1 signalling. To address this, a coculture assay was used where Notch signalling was activated via DL4:N1 or DL4:N2 ligand receptor pairs.

RPMI 8402 = test: Alamar blue proliferation assay, RPMI 8402; assay type: cell-based, human; settings: 10 μM, up to 6 days
Description: (§1) Human T-ALL cell lines RPMI 8402 and KOPTK1, and pancreatic cancer cell line PANC1 as well as nRas driven melanoma cells were seeded in a 96 well plate and treated with 10 μM concentration of 6-(4-Tert-Butylphenoxy)Pyridin-3-Amine (I3) and DAPT for several days. Their growth inhibitory effects were compared with cells treated with equal amount of DMSO. Using Alamar blue assay, the growth kinetics of RPMI 8402 and KOPTK1 were followed for upto 6 days, while PANC1 and nRas melanoma cells were monitored for 4 days. 6-(4-Tert-Butylphenoxy)Pyridin-3-Amine (I3) treatment of RPMI 8402, KOPTK1. […] Statistical analyses were done using student's t.test. *=p value<0.05. ns=not significant.
(§2) Alamarblue® proliferation assays were performed to determine the growth kinetics of Notch inhibitor treated cells. Alamar Blue® consists of a cell permeable substrate resazurin. In metabolically active and proliferating cells, resazurin is converted to resorufin due to an intrinsic reducing power of live cells and produces a red fluorescence. Therefore production of resorufin serves as an indicator of the viability of the cell population.
(§3) Proliferation assays were performed by seeding 5000 cells/well in a 96 well plate. Cells were treated with DMSO or Notch inhibitors for different time intervals. […] Alamarblue readout was taken using Tecan F500 (Tecan) multiplate reader. […]

KOPTK1 = test: Alamar blue proliferation assay, KOPTK1; assay type: cell-based, human; settings: 10 μM, up to 6 days
Description: as §1, §2, §3

[2] = tested on: Notch-independent RAJI cells; test: Alamar blue proliferation assay, RAJI; assay type: cell-based; settings: control line with no known Notch mutations
Description: as §2
Proliferation assays were performed by seeding 5000 cells/well in a 96 well plate. Cells were treated with DMSO or Notch inhibitors for different time intervals. Each treatment for every time interval was carried out in 8 replicates. To determine the growth kinetics, 10 μl of Alamar Blue® (Invitrogen) was added to each well and incubated for 4 hours. Alamarblue readout was taken using Tecan F500 (Tecan) multiplate reader.
As treatment of the human T-ALL cell lines and PANC1 pancreatic cancer cell line with 6-(4-Tert-Butylphenoxy)Pyridin-3-Amine (I3) induced a downregulation of Notch signalling, Applicants questioned whether this inhibition of the pathway translates into growth arrest in cancer cells. To this end, RPMI 8402, KOPTK1, PANC1 and nRas driven melanoma cell lines were grown in the presence or absence of 6-(4-Tert-Butylphenoxy)Pyridin-3-Amine (I3) for several days and their proliferative index was measured using the Alamar blue assay. […]

DND41-NICD cells = test: Alamar blue proliferation assay, DND41-NICD; assay type: cell-based, human; settings: over 5 days
Description: (§4) FIGS. 5A-5E show 6-(4-Tert-Butylphenoxy)Pyridin-3-Amine (I3) blocks NICD dependent growth of human cancer cells. […] Western blot analyses were carried out for Hes1 protein using Hes1 specific antibodies. […] Growth kinetics of the parental cell line was followed over 5 days using Alamar blue readout. […] This mutation renders this cell line insensitive to γ-secretase inhibitor treatment. […] The cells were treated with DMSO, γ-secretase inhibitor DAPT and I3 for 6 days. Alamar blue readout was taken at day 0, day 2, day 4 and day 6. Eight replicates were used for each treatment and time point. […] P values were calculated using Student's t.test. *=p value<0.05. ns=not significant.
Alamarblue® proliferation assays were performed to determine the growth kinetics of Notch inhibitor treated cells. […] In metabolically active and proliferating cells, resazurin is converted to resorufin due to an intrinsic reducing power of live cells and produces a red fluorescence. […]
Proliferation assays were performed by seeding 5000 cells/well in a 96 well plate. […] Alamarblue readout was taken using Tecan F500 (Tecan) multiplate reader.
6-(4-Tert-Butylphenoxy)Pyridin-3-Amine (I3) can block NICD mediated activation of the Notch pathway (FIGS. 1A-D). […] In addition, these two cell lines were also monitored over several days for anti-proliferative effects of 6-(4-Tert-Butylphenoxy)Pyridin-3-Amine (I3) and DAPT.

[3] = tested on: HCC1187 human breast cancer cell line; test: Alamar blue proliferation assay, HCC1187; assay type: cell-based; settings: 6 days
Description: as §4, §2, §3

C2C12 myoblasts = test: C2C12 myoblast differentiation assay; assay type: cell-based; settings: growth medium (10% serum), 3 days
Description: C2C12 cells were grown on collagen-coated cover slip in the presence of growth media (10% serum). To induce myoblast differentiation, cells were grown to 100% confluency for 3 days in the presence of differentiation media (2% horse serum) or in the presence of growth media+Notch inhibitors. After 3 days, cells were washed with 1× ice-cold PBS and fixed with 4% PFA. Immunofluorescence staining was performed using anti-MHC antibody as explained in the section 2.2.6 (Immunofluorescence staining).
To further confirm the Notch inhibitory potential of 6-(4-Tert-Butylphenoxy)Pyridin-3-Amine (I3) in different systems, C2C12 myoblast differentiation was used as a functional assay. The Notch pathway activation in C2C12 myoblasts retains them in an undifferentiated state, while abrogation of Notch signalling induces their differentiation. C2C12 myoblasts were treated with DMSO, 6-(4-Tert-Butylphenoxy)Pyridin-3-Amine (I3) and DAPT and grown to 100% confluency for 3 days. After three days, cells were fixed and stained with antibodies against Myosin Heavy Chain (MHC) protein. Cell nuclei were counterstained with DAPI.

SMILES | DL4:N2 (Notch2) driven pathway activation [1] | proliferation (Alamar blue) (RPMI 8402) | proliferation (Alamar blue) (KOPTK1) | proliferation [2] | proliferation (Alamar blue) (DND41-NICD cells) | proliferation (Alamar blue) [3] | differentiation into MHC positive myotubes (C2C12 myoblasts)
CC(C)(C)c1ccc(Oc2ccc(N)cn2)cc1 [I3, 6-(4-Tert-Butylphenoxy)Pyridin-3-Amine] | caused an inhibition of Notch signalling via both DL4:N1 and DL4:N2 ligand-receptor pairs; also recorded: block Notch1 and Notch2 induced pathway activation | induced a significant proliferation block; also recorded: caused a significant reduction in their growth potential | induced a significant proliferation block; also recorded: caused a significant reduction in their growth potential | neither DAPT nor 6-(4-Tert-Butylphenoxy)Pyridin-3-Amine (I3) had any effect on the proliferation | induced a proliferation arrest; also recorded: able to block proliferation of NICD overexpressing leukemic cell lines which are resistant to DAPT | significantly induced a proliferation block; also recorded: caused statistically significant inhibition of cell proliferation | started to differentiate into multinucleated MHC positive myotubes; also recorded: can induce differentiation of C2C12 cells into MHC expressing multinucleated myotubes
C[C@H](NC(=O)Cc1cc(F)cc(F)c1)C(=O)N[C@H](C(=O)OC(C)(C)C)c1ccccc1 [DAPT, N—[N-(3,5-difluorophenacetyl-Lalanyl)]-(S)-phenylglycine t-butyl ester, reference compound] | block Notch1 and Notch2 induced pathway activation | induced a significant proliferation block | induced a significant proliferation block | neither DAPT nor 6-(4-Tert-Butylphenoxy)Pyridin-3-Amine (I3) had any effect on the proliferation | did not have a significant impact on their proliferation | did not inhibit proliferation; also recorded: did not alter the growth kinetics | started to differentiate into multinucleated MHC positive myotubes
